Reference: PMC11603058 (Scientific Reports, 2024)
Peptide text beside a SMILES is read from it. * marks the point of attachment. Cbz = O=C(OCc1ccccc1)*; CH2F = FC*

Key:
MIA PaCa-2 cells [1] = experiment: Viability of AJO14-treated cells in presence of cell death inhibitors; assay type: cell-based, human; conditions: MIA PaCa-2, 24 h; Z-VAD-FMK (20 µM), Nec-1 (40 µM), or Olaparib (25 μM)
MIA PaCa-2 cells [2] = experiment: Oxygen consumption rate, Seahorse XF; assay type: cell-based, human; conditions: MIA PaCa-2, 24 h, AJO14 (10 μM) with increasing concentrations of Olaparib
hERG channel = hERG channel (Homo sapiens, UniProt Q12809); experiment: Predictor hERG Fluorescence Polarization assay; assay type: binding; conditions: read-out: hERG channel inhibition (IC50), 0.1-80 μM
hERG channel, sequence (Q12809 whole entry): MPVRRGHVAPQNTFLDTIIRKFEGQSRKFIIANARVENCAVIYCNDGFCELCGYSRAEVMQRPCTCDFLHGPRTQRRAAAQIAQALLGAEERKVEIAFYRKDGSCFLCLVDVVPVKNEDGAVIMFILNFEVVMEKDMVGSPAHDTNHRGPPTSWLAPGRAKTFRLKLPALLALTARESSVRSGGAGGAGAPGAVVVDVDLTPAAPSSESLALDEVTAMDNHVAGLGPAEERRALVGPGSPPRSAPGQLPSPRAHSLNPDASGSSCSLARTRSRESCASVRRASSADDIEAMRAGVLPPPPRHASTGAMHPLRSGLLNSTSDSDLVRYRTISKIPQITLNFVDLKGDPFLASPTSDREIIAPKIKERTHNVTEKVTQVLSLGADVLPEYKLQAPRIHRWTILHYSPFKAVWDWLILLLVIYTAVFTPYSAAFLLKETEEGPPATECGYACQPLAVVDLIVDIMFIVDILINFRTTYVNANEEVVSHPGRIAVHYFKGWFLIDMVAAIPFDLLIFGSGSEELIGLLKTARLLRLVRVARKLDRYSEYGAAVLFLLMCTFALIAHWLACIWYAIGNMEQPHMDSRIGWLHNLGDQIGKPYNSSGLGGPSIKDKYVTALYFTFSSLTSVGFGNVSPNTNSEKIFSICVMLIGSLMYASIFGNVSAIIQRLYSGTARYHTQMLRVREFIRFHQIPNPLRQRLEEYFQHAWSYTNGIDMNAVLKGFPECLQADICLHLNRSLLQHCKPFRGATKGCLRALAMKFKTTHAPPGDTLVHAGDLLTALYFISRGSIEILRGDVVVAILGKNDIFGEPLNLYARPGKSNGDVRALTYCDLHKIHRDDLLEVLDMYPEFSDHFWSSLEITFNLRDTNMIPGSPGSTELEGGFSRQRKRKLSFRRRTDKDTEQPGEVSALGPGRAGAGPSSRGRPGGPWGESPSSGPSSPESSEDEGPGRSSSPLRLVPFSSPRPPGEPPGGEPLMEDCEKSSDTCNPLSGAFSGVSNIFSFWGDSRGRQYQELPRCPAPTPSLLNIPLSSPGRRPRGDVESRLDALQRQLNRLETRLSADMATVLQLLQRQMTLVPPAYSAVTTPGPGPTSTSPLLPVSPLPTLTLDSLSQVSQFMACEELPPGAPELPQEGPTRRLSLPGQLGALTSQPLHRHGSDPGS

SMILES	effect of pretreatment on cell viability of cells treated with AJO14 (MIA PaCa-2 cells [1])	effect on mitochondrial metabolism failure (OCR) caused by AJO14 (MIA PaCa-2 cells [2])	IC50 (hERG channel) [nM]
COC(=O)C[C@H](NC(=O)[C@H](C)NC(=O)[C@@H](NC(=O)OCc1ccccc1)C(C)C)C(=O)CF [Z-VAD-FMK] (Cbz-Val-Ala-Asp(OMe)-CH2F)	partially improved the cell viability		
O=C(c1cc(Cc2n[nH]c(=O)c3ccccc23)ccc1F)N1CCN(C(=O)C2CC2)CC1 [Olaparib]	partially improved the cell viability	could reverse the strong mitochondrial metabolism failure caused by AJO14	
CN(C)CCN1CCN(CCCN2c3ccccc3Sc3ccc(C(F)(F)F)cc32)CC1 [ZZW-115]			2000
CN1C(=O)C(Cc2c[nH]c3ccccc23)NC1=S (centres unmarked) [Necrostatin]	partially improved the cell viability		
